Source: US20110059102A1, “Therapeutic Method Targeting Midkine” (NATIONAL UNIVERSITY CORPORATION NAGOYA UNIVERSITY, priority 2009, published 2011)
Counter-ions that a name gives are not always drawn.

Legend:
ACE = ACE expression in HMVEC-L by Western blotting; assay type: cell-based, human
Excerpt: Histology and immunohistochemistry. The removed kidneys and lungs were fixed in 10% buffered formalin, embedded in paraffin, and then cut into 4-10.1 μm sections. The sections were stained with H&E, PAS, and Masson's trichrome. Another tissue sample was embedded in OCT compound (Sakura Finetek) and frozen in liquid nitrogen for immunostaining. Sections were cut to a thickness of 3 μm with a cryostat and fixed in acetone. High-power fields were used to examine the sections for evidence of focal sclerosis (J. Hypertens. 13:1785-1790, J. Lab. Clin. Med. 115:165-173). Glomerular sclerosis was assessed by semiquantitative score (grades 0 to +4) using the method of Raij et al. (Kidney Int. 26:137-143): grade 0, no sclerosis of glomeruli; grade 1, sclerosis of up to 25% of glomerulus; grade 2, sclerosis of 25%-50% of glomerulus; grade 3, sclerosis of 50%-75% of glomerulus; grade 4, sclerosis of 75%-100% of glomerulus. At least 50 glomeruli were evaluated under ×400 magnification and results averaged for each kidney (Mdk^+/+: 2 weeks, n=5; 4 weeks, n=4; 8 weeks, n=4; Mdk^−/−: 2 weeks, n=4; 4 weeks, n=3; 8 weeks, n=3). Immunostaining for ACE and MK was performed on buffered formalin-fixed tissues. Sections were deparaffinized, rehydrated, incubated in 3% hydrogen peroxide in methanol to block endogenous peroxidase, and washed in 10% normal goat serum (Dako) in PBS to block nonspecific binding. Subsequently, sections were incubated with mouse anti-ACE monoclonal antibody (dilution, 1:400; Chemicon International, Millipore) or anti-MK monoclonal antibody (dilution, 1:100) overnight at 4° C. as described previously (22), followed by a conjugate of polyclonal goat anti-mouse IgG antibody and HRP-labeled polymer (Histofine Simple Stain; Nichirei) for 1 hour at room temperature as a secondary antibody. The staining was visualized with 3-3′ diaminobenzidine (Nichirei) to produce a brown color. The sections were covered with 90% glycerol containing p-phenylenediamine and were examined by electron microscopy (H-7100; Hitachi). For double immunofluorescence staining of MK and thrombomodulin as a marker of the vascular endothelium, the cryosections of lungs were first incubated with chicken anti-human MK (dilution, 1:200) and then with rabbit anti-rat thrombomodulin (dilution, 1:1,000) (J. Immunol. 150:5633-5646), followed by incubation with FITC-labeled rabbit anti-chicken IgG (dilution, 1:160) and rhodamine-labeled goat anti-rabbit IgG (dilution, 1:320) as secondary antibodies. […] The lung and kidney section from each mouse was viewed under ×400 magnification, and then macrophages or neutrophils were counted from 10 fields and averaged. […]

[1] = Body weight, blood urea nitrogen and serum creatinine after 5/6 nephrectomy, drug treatment model; assay type: in vivo; conditions: Mdk+/+ mice; for BUN (blood urea nitrogen) / Cre (serum creatinine): 2 weeks after nephrectomy, oral daily at indicated dose, mean ± SD; for Abnormal elevation of blood urea nitrogen and serum creatinine: 2 weeks after 5/6 nephrectomy
Method: Animals and experimental design. Mice deficient in Mdk were generated as described previously (Genes Cells. 3:811-822). After backcrossing of Mdk+/− mice for 14 generations with 129/Sv mice, Mdk+/− mice were mated with each other to generate Mdk^+/+ and Mdk^−/− mice, which were used in this study. Experiments were performed on 8 to 12-week-old female mice weighing 20-25 g that were housed under controlled environmental conditions and maintained with standard food and water. Animal care and experimental procedures were approved by the Animal Experimentation Committee of the Nagoya University Graduate School of Medicine and were conducted according to the Nagoya University Regulations for Experiments. Renal ablation was performed as described previously. Briefly, mice were anesthetized by diethyl ether. The flank region was shaved, and the animals were placed on a heating pad to maintain a constant body temperature (37° C.). Under anesthesia, right flank incisions were made, and the right kidney was removed. Seven days later, mice were anesthetized as above, and two-thirds of the mass of the left kidneys was ablated (Mdk^+/+: 2 weeks, n=13; 4 weeks, n=13; 8 weeks, n=8; Mdk^−/−: 2 weeks, n=10; 4 weeks, n=10; 8 weeks, n=4). After the renal ablation, the flanks were closed in 2 layers with 5-0 silk sutures. The animals received 100 ml/kg warm saline instilled into the peritoneal cavity during the procedure and were allowed to recover with free access to food and water. In the control mice, a sham operation was performed (Mdk^+/+, n=11; Mdk^−/−, n=8).
(§1) Drug treatment model. In the drug treatment studies, Mdk^+/+ mice were randomly assigned to receive one of the following 5 treatments after 5/6 nephrectomy and were orally treated daily starting from 24 hours after 5/6 nephrectomy: vasodilator (hydralazine hydrochloride; Novartis) at a dose of 10 mg/kg/d (group 1, n=3); ACE inhibitor (temocapril; Daiichi Sankyo Co.) at a dose of 3 mg/kg/d (group 2, n=3); angiotensin receptor blocker (olmesartan; Daiichi Sankyo Co.) at a dose of 3 mg/kg/d (group 3, n=3); antioxidative reagent (tempol; Alexis Biochemicals) at a dose of 3 mmol/l in drinking solution after 5/6 nephrectomy (group 4, n=6); and sham operation (group 5, n=6). Drug treatment was performed […]. In the present study, we determined the dosage according to previous reports (Hypertension. 13:582-588, J. Cardiovasc. Pharmacol. 40:533-542, Hypertension. 43:841-848). Blood pressure was measured by the tail-cuff method at 2 weeks, as described below under Blood pressure monitoring. Mice were sacrificed at 2 weeks after 5/6 nephrectomy, and blood and tissue samples were collected.
Sample collection. Mice were sacrificed at 2, 4, and 8 weeks after 5/6 nephrectomy. The remnant kidney, lung, brain, heart, and liver were removed rapidly, snap-frozen in liquid nitrogen, and stored at −80° C. until examinations were performed. Each tissue was processed for histology, protein extraction, and RNA extraction. Blood samples were collected into chilled tubes for measurement of renal function parameters and into chilled tubes containing EDTA for Ang II measurements. Serum and plasma were separated by centrifugation (500 g for 10 minutes) and stored at −80° C. until measurement were performed. Serum creatinine, blood urea nitrogen (Mdk^+/+: sham, n=6; 2 weeks, n=10; 4 weeks, n=9; 8 weeks, n=8; Mdk^−/−: sham, n=7; 2 weeks, n=7; 4 weeks, n=6; 8 weeks, n=4), and Ang II concentrations (Mdk^+/+: sham, n=6; 2 weeks, n=6; 4 weeks, n=8; Mdk^−/−: sham, n=6; 2 weeks, n=7; 4 weeks, n=5) were measured by Mitsubishi BCL.

[2] = tested on: Mdk+/+ mice after 5/6 nephrectomy; experiment: Blood pressure by tail-cuff method, drug treatment model after 5/6 nephrectomy; assay type: in vivo; conditions: 2 weeks after 5/6 nephrectomy
Method: as §1
(§2) Blood pressure monitoring. Blood pressure was measured in restrained, conscious mice by the indirect tail-cuff technique under unstressed conditions (BP-98A; Softron) at 0, 2, 4, 6, and 8 weeks after 5/6 nephrectomy (J. Lab. Clin. Med. 78:957-962). Before measurement, the mice were warmed with a heating pad for 5 minutes. A total of 7-10 readings were taken for each mouse, at 1- to 2-minute intervals.

[3] = tested on: Mdk+/+ mice after 5/6 nephrectomy; experiment: Kidney histology (PAS staining) after 5/6 nephrectomy, drug treatment model; assay type: in vivo; conditions: 2 weeks after 5/6 nephrectomy, PAS staining
Method: as §1
Histology and immunohistochemistry.

HMVEC-L = experiment: Ang II concentration in HMVEC-L (conversion from Ang I to Ang II); assay type: cell-based, human; conditions: HMVEC-L treated 36 hours with MK 100 ng/ml plus heparin 20 μg/ml or heparin alone, then Ang I added
Method: Ang II concentration in HMVEC-L. After reaching confluence, HMVEC-L were washed with PBS and cultured for 24 hours in essential basal medium containing 0.5% FBS. These cells were exposed to 100 ng/ml rh-MK plus 20 μg/ml heparin or 20 μg/ml heparin alone in essential basal medium containing 0.5% FBS for 36 hours. After stimulation, HMVEC-L were washed with PBS and exposed to 500 pM Ang I (Sigma-Aldrich) for 10 and 25 minutes. Supernatants were collected into chilled tubes, and then the Ang II concentration was measured as previously described (Hypertension. 39:129-134).

[4] = tested on: Mdk-/- mice after 5/6 nephrectomy; experiment: rh-MK and -PTN treatment model (osmotic pump), blood pressure by tail-cuff; assay type: in vivo; conditions: 1.6 mg/ml, 100 μl by osmotic pump over 14 days
Method: rh-MK and -PTN treatment model. In the pump study, MK protein in saline (1.6 mg/ml) (n=5), PTN in saline (1.6 mg/ml; n=5), or saline alone (n=5) was infused using an osmotic pump (ALZA Corp.) into Mdk^−/− mice after 5/6 nephrectomy. The pumps continuously infused a total of 100 μl over 14 days. The pumps were implanted under the dorsal skin the next day after 5/6 nephrectomy. Blood pressure was measured by the indirect tail-cuff technique at 0 and 2 weeks after 5/6 nephrectomy. Mice were sacrificed at 2 weeks after 5/6 nephrectomy, and blood and tissue samples were collected.
as §2

## CCCCCCCCCCCCCC(=O)O[C@@H]1[C@@H](C)[C@@]2(O)[C@@H](C=C(CO)C[C@]3(O)C(=O)C(C)=C[C@@H]23)[C@@H]2C(C)(C)[C@]12OC(C)=O [PMA]
ACE; PMA 50 ng/ml
  ACE expression in HMVEC-L: induced

## CCOC(=O)[C@H](CCc1ccccc1)N[C@H]1CS[C@H](c2cccs2)CN(CC(=O)O)C1=O [Temocapril, temocapril]
[1]
  BUN (blood urea nitrogen): 30.3 ± 2.9^A mg/dl
  Cre (serum creatinine): 0.21 ± 0.04^A mg/dl
  Abnormal elevation of blood urea nitrogen and serum creatinine: ameliorated
[2]
  Blood pressure / hypertension: reduced
[3]
  Renal tubulointerstitial damage: reduced

## heparin
HMVEC-L
  Conversion of Ang I to Ang II: did not show such a conversion

## CCCc1nc(C(C)(C)O)c(C(=O)O)n1Cc1ccc(-c2ccccc2-c2nnn[nH]2)cc1 [Olmesartan, olmesartan]
[1]
  BUN (blood urea nitrogen): 36.0 ± 1.0^B mg/dl
  Cre (serum creatinine): 0.21 ± 0.01^A mg/dl

## CN(C)CCCn1cc(C2=C(c3c[nH]c4ccccc34)C(=O)NC2=O)c2ccccc21 [BIS, bisindolylmaleimide I]
ACE; BIS 5 μM added 1 hour before 36-hour treatment with rh-MK plus heparin
  MK-mediated increase in ACE expression: blocked
ACE; BIS added 1 hour before PMA
  PMA-induced increase in ACE expression: blocked

## NNc1nncc2ccccc12 [Hydralazine, hydralazine hydrochloride]
[1]
  BUN (blood urea nitrogen): 63.3 ± 7.6 mg/dL
  Cre (serum creatinine): 0.53 ± 0.12 mg/dL
  Abnormal elevation of blood urea nitrogen and serum creatinine: not
[2]
  Blood pressure / hypertension: ameliorated hypertension
[3]
  Renal tubulointerstitial damage: not

B1: PTN: recombinant human pleiotrophin, shows 50% homology with MK (protein, UniProt P21246 33-168, looked up)
Pleiotrophin: GKKEKPEKKVKKSDCGEWQWSVCVPTSGDCGLGTREGTRTGAECKQTMKTQRCKIPCNWKKQFGAECKYQFQAWGECDLNTALKTRTGSLKRALHNAECQKTVTISKPCGKLTKPKPQAESKKKKKEGKKQEKMLD
[4]
  Hypertension (SBP): neither induced hypertension
